Patent publication USRE49022E1, “Insecticidal compounds” (SYNGENTA PARTICIPATIONS AG, priority 2013, dated 2022)

How the values were obtained:
Format in all cases: in vivo
[1] = system: Diabrotica balteata (Corn Root Worm); test: Diabrotica balteata, artificial diet MTP test; details: 120 h, 200 ppm (concentration in well 18 ppm), L2 larvae, larval mortality after 5 days
Experimental: A 24-well microtiter plate (MTP) with artificial diet was treated with test solutions at an application rate of 200 ppm (concentration in well 18 ppm) by pipetting. After drying, the MTP's were infested with L2 larvae (6-10 per well). After an incubation period of 5 days, samples were checked for larval mortality The following compound gave at least 80% control of Diabrotica balteata: 1, 2, 3, 4, 5, 6, 7, 8, 9, 10, 11, 12, 13, 14, 15, 16, 17, 18, 19, 20, 21, 22, 23, 24, 25, 26, 27, 28, 29, 30, 31, 32, 33, 34, 35, 36, 37, 38, 39, 40, 41, 42, 43, 44, 45, 46, 47, 48, 49, 50, 51.

[2] = system: Myzus persicae (Green Peach Aphid); test: Myzus persicae, sunflower leaf disc spray test; details: foliar, 144 h, sprayed sunflower leaf discs, aphid population of mixed ages, mortality after 6 DAT
Experimental: Sunflower leaf discs were placed on agar in a 24-well microtiter plate and sprayed with test solutions at an application rate of 200 ppm. After drying, the leaf discs were infested with an aphid population of mixed ages. After an incubation period of 6 DAT, samples were checked for mortality.

[3] = system: Myzus persicae (Green Peach Aphid); test: Myzus persicae, sucrose solution / Parafilm test; details: 120 h, mixed with sucrose solution under Parafilm, mortality 5 days after infestation
Excerpt: Test compounds were applied by pipette into 24 well plates and mixed with Sucrose solution. Application rate: 12.5 ppm. The plates were closed with a stretched Parafilm. A plastic stencil with 24 holes is placed onto the plate and infested pea seedlings were placed directly on the Parafilm. The infested plate is closed with a gel blotting paper and another plastic stencil and then turned upside down. 5 days after infestation the samples were checked on mortality.

[4] = system: Plutella xylostella (Diamond Back Moth); test: Plutella xylostella, artificial diet MTP test; details: 144 h, 200 ppm (concentration in well 18 ppm), L2 larvae, 6 days
Experimental: 24-well microtiter plate (MTP) with artificial diet was treated with test solutions at an application rate of 200 ppm (concentration in well 18 ppm) by pipetting. After drying, the MTP's were infested with L2 larvae (7-12 per well). After an incubation period of 6 days, samples were checked for larval mortality and growth regulation. The following compound gave at least 80% mortality of Plutella xylostella: 1, 2, 3, 4, 5, 6, 7, 8, 9, 10, 11, 12, 13, 14, 15, 16, 17, 18, 19, 20, 21, 22, 23, 24, 25, 26, 27, 28, 29, 30, 31, 32, 33, 34, 35, 36, 37, 38, 39, 40, 41, 42, 43, 44, 45, 46, 47, 48, 49, 50.

[5] = system: Spodoptera littoralis (Egyptian Cotton Leafworm); test: Spodoptera littoralis, cotton leaf disc spray test; details: foliar, 72 h, sprayed cotton leaf discs, L1 larvae, 3 days after treatment
Excerpt: Cotton leaf discs were placed on agar in a 24-well microtiter plate and sprayed with test solutions at an application rate of 200 ppm. After drying, the leaf discs were infested with 5 L1 larvae. The samples were checked for mortality 3 days after treatment (DAT).

[6] = system: Spodoptera littoralis (Egyptian Cotton Leaf Worm); test: Spodoptera littoralis, agar / lettuce root uptake test; details: 144 h, mixed with agar, uptake by lettuce roots, mortality 6 days after infestation
Excerpt: Test compounds were applied by pipette into 24 well plates and mixed with agar. Application rate: 12.5 ppm. Lettuce seeds were placed on the agar and the multi well plate is closed by another plate which contains also agar. After 7 days the roots have absorbed the compound and the lettuce has grown into the lid plate. The lettuce leafs were now cut off into the lid plate. Spodoptera eggs were pipetted through a plastic stencil on a humid gel blotting paper and the plate closed with it. The samples are checked for mortality 6 days after infestation.

[7] = system: Tetranychus urticae (Two-Spotted Spider Mite); test: Tetranychus urticae, bean leaf disc spray test; details: foliar, 192 h, sprayed bean leaf discs, mite populations of mixed ages, 8 days
Excerpt: Bean leaf discs on agar in 24-well microtiter plates were sprayed with test solutions at an application rate of 200 ppm. After drying, the leaf discs are infested with mite populations of mixed ages. 8 days later, discs were checked for mortality.

[8] = system: Thrips tabaci (Onion Thrips); test: Thrips tabaci, sunflower leaf disc spray test; details: foliar, 168 h, sprayed sunflower leaf discs, mortality after 7 days

CCN(C(=O)c1cccnc1)c1cccc(C(=O)Nc2c(Br)cc(C(F)(C(F)(F)F)C(F)(F)Cl)cc2OC(F)F)c1F (stereo not shown) [Compound 39]
≥ 80%: pest or weed control at 200 ppm [1] | pest or weed control at 200 ppm [2] | pest or weed control at 12.5 ppm [3] | mortality at 200 ppm [4] | mortality at 200 ppm [5] | pest or weed control at 12.5 ppm [6] | mortality at 200 ppm [7] | pest or weed control at 200 ppm [8]

CCc1cc(C(F)(C(F)(F)F)C(F)(F)Cl)cc(Br)c1NC(=O)c1cccc(NC(=O)c2ccc[n+]([O-])c2)c1F (stereo not shown) [Compound 28]
≥ 80%: pest or weed control at 200 ppm [1] | pest or weed control at 200 ppm [2] | pest or weed control at 12.5 ppm [3] | mortality at 200 ppm [4] | mortality at 200 ppm [5] | mortality at 200 ppm [7] | pest or weed control at 200 ppm [8]

CCN(C(=O)c1ccncc1)c1cccc(C(=O)Nc2c(Cl)cc(C(F)(C(F)F)C(F)(F)F)cc2Br)c1OC (stereo not shown) [Compound 51, N-[3-[[2-bromo-6-chloro-4-[1-(difluoromethyl)-1,2,2,2-tetrafluoro-ethyl]phenyl]carbamoyl]-2-methoxy-phenyl]-N-ethyl-pyridine-4-carboxamide]
≥ 80%: pest or weed control at 200 ppm [1] | pest or weed control at 200 ppm [2] | pest or weed control at 12.5 ppm [3] | mortality at 200 ppm [5] | mortality at 200 ppm [7] | pest or weed control at 200 ppm [8]

CCc1cc(C(F)(C(F)(F)F)C(F)(F)Cl)cc(Br)c1NC(=O)c1cccc(NC(=O)c2cccnc2)c1F (stereo not shown) [Compound 18]
≥ 80%: pest or weed control at 200 ppm [1] | pest or weed control at 200 ppm [2] | pest or weed control at 12.5 ppm [3] | mortality at 200 ppm [4] | mortality at 200 ppm [5] | mortality at 200 ppm [7] | pest or weed control at 200 ppm [8]

CCc1cc(C(F)(C(F)(F)F)C(F)(F)Cl)cc(Br)c1NC(=O)c1cccc(NC(=O)c2cc[n+]([O-])cc2)c1F (stereo not shown) [Compound 27]
≥ 80%: pest or weed control at 200 ppm [1] | pest or weed control at 200 ppm [2] | pest or weed control at 12.5 ppm [3] | mortality at 200 ppm [4] | mortality at 200 ppm [5] | mortality at 200 ppm [7] | pest or weed control at 200 ppm [8]

CCc1cc(C(F)(C(F)(F)F)C(F)(F)Cl)cc(Br)c1NC(=O)c1cccc(NC(=O)c2cc[n+]([O-])cc2)c1OC (stereo not shown) [Compound 29]
≥ 80%: pest or weed control at 200 ppm [1] | pest or weed control at 200 ppm [2] | pest or weed control at 12.5 ppm [3] | mortality at 200 ppm [4] | mortality at 200 ppm [5] | mortality at 200 ppm [7] | pest or weed control at 200 ppm [8]

CCc1cc(C(F)(C(F)(F)F)C(F)(F)Cl)cc(Br)c1NC(=O)c1cccc(NC(=O)c2ccncc2)c1F (stereo not shown) [Compound 17]
≥ 80%: pest or weed control at 200 ppm [1] | pest or weed control at 200 ppm [2] | pest or weed control at 12.5 ppm [3] | mortality at 200 ppm [4] | mortality at 200 ppm [5] | mortality at 200 ppm [7] | pest or weed control at 200 ppm [8]

CCc1cc(C(F)(C(F)(F)F)C(F)(F)Cl)cc(Br)c1NC(=O)c1cccc(NC(=O)c2ccc[n+]([O-])c2)c1OC (stereo not shown) [Compound 30]
≥ 80%: pest or weed control at 200 ppm [1] | pest or weed control at 200 ppm [2] | pest or weed control at 12.5 ppm [3] | mortality at 200 ppm [4] | mortality at 200 ppm [5] | mortality at 200 ppm [7] | pest or weed control at 200 ppm [8]

CCc1cc(C(F)(C(F)(F)F)C(F)(F)Cl)cc(Br)c1NC(=O)c1cccc(N(CC)C(=O)c2ccc[n+]([O-])c2)c1F (stereo not shown) [Compound 49]
≥ 80%: pest or weed control at 200 ppm [1] | pest or weed control at 200 ppm [2] | pest or weed control at 12.5 ppm [3] | mortality at 200 ppm [4] | mortality at 200 ppm [5] | mortality at 200 ppm [7] | pest or weed control at 200 ppm [8]

CCc1cc(C(F)(C(F)(F)F)C(F)(F)Cl)cc(Br)c1NC(=O)c1cccc(NC(=O)c2ccc(C#N)cc2)c1OC (stereo not shown) [Compound 22]
≥ 80%: pest or weed control at 200 ppm [1] | pest or weed control at 200 ppm [2] | pest or weed control at 12.5 ppm [3] | mortality at 200 ppm [4] | mortality at 200 ppm [5] | mortality at 200 ppm [7] | pest or weed control at 200 ppm [8]

CCc1cc(C(F)(C(F)(F)F)C(F)(F)Cl)cc(Br)c1NC(=O)c1cccc(N(CC)C(=O)c2cccnc2)c1OC (stereo not shown) [Compound 42]
≥ 80%: pest or weed control at 200 ppm [1] | pest or weed control at 200 ppm [2] | pest or weed control at 12.5 ppm [3] | mortality at 200 ppm [4] | mortality at 200 ppm [5] | mortality at 200 ppm [7] | pest or weed control at 200 ppm [8]

CCc1cc(C(F)(C(F)(F)F)C(F)(F)Cl)cc(Br)c1NC(=O)c1cccc(N(CC)C(=O)c2cc[n+]([O-])cc2)c1F (stereo not shown) [Compound 45]
≥ 80%: pest or weed control at 200 ppm [1] | pest or weed control at 200 ppm [2] | pest or weed control at 12.5 ppm [3] | mortality at 200 ppm [4] | mortality at 200 ppm [5] | mortality at 200 ppm [7] | pest or weed control at 200 ppm [8]

CCc1cc(C(F)(C(F)(F)F)C(F)(F)Cl)cc(Br)c1NC(=O)c1cccc(N(CC)C(=O)c2ccc(C#N)cc2)c1OC (stereo not shown) [Compound 34]
≥ 80%: pest or weed control at 200 ppm [1] | pest or weed control at 200 ppm [2] | pest or weed control at 12.5 ppm [3] | mortality at 200 ppm [4] | mortality at 200 ppm [5] | mortality at 200 ppm [7] | pest or weed control at 200 ppm [8]

CCc1cc(C(F)(C(F)(F)F)C(F)(F)Cl)cc(Br)c1NC(=O)c1cccc(N(CC)C(=O)c2ccncc2)c1OC (stereo not shown) [Compound 38]
≥ 80%: pest or weed control at 200 ppm [1] | pest or weed control at 200 ppm [2] | pest or weed control at 12.5 ppm [3] | mortality at 200 ppm [4] | mortality at 200 ppm [5] | mortality at 200 ppm [7] | pest or weed control at 200 ppm [8]

CCc1cc(C(F)(C(F)(F)F)C(F)(F)Cl)cc(Br)c1NC(=O)c1cccc(NC(=O)c2ccncc2)c1OC (stereo not shown) [Compound 20]
≥ 80%: pest or weed control at 200 ppm [1] | pest or weed control at 200 ppm [2] | pest or weed control at 12.5 ppm [3] | mortality at 200 ppm [4] | mortality at 200 ppm [5] | mortality at 200 ppm [7] | pest or weed control at 200 ppm [8]

CCc1cc(C(F)(C(F)(F)F)C(F)(F)Cl)cc(Br)c1NC(=O)c1cccc(NC(=O)c2ccc(C#N)cc2)c1F (stereo not shown) [Compound 19]
≥ 80%: pest or weed control at 200 ppm [1] | pest or weed control at 200 ppm [2] | pest or weed control at 12.5 ppm [3] | mortality at 200 ppm [4] | mortality at 200 ppm [5] | mortality at 200 ppm [7] | pest or weed control at 200 ppm [8]

CCc1cc(C(F)(C(F)(F)F)C(F)(F)Cl)cc(Br)c1NC(=O)c1cccc(N(CC)C(=O)c2cc[n+]([O-])cc2)c1OC (stereo not shown) [Compound 46]
≥ 80%: pest or weed control at 200 ppm [1] | pest or weed control at 200 ppm [2] | pest or weed control at 12.5 ppm [3] | mortality at 200 ppm [4] | mortality at 200 ppm [5] | mortality at 200 ppm [7] | pest or weed control at 200 ppm [8]

CCc1cc(C(F)(C(F)(F)F)C(F)(F)Cl)cc(Br)c1NC(=O)c1cccc(N(CC)C(=O)c2ccncc2)c1F (stereo not shown) [Compound 37]
≥ 80%: pest or weed control at 200 ppm [1] | pest or weed control at 200 ppm [2] | pest or weed control at 12.5 ppm [3] | mortality at 200 ppm [4] | mortality at 200 ppm [5] | mortality at 200 ppm [7] | pest or weed control at 200 ppm [8]

CCc1cc(C(F)(C(F)(F)F)C(F)(F)Cl)cc(Br)c1NC(=O)c1cccc(N(CC)C(=O)c2ccc(C#N)cc2)c1F (stereo not shown) [Compound 33]
≥ 80%: pest or weed control at 200 ppm [1] | pest or weed control at 200 ppm [2] | pest or weed control at 12.5 ppm [3] | mortality at 200 ppm [4] | mortality at 200 ppm [5] | mortality at 200 ppm [7] | pest or weed control at 200 ppm [8]
